Results: PMC10994195 (Journal of medicinal chemistry, 2024)
One block for each molecule: values may come before it.

Experiments:
FmlH = FmlH (Escherichia coli, UniProt A0A0H2V7F6); experiment: ELISA of FmlH lectin domain binding with TF antigen as competitive ligand; set-up: species or system uropathogenic Escherichia coli (UPEC); details: for loss of activity relative to parent compound I: FmlH ELISA IC50 ratio
Mouse pharmacokinetics = assay type: in vivo, C3H/HeN mice; details: mice, PO
[1] = In vivo pharmacokinetics in mice; details: mice plasma PK
[2] = cited from earlier work
[3] = rats; cited from earlier work

SMILES: CS(=O)(=O)Nc1cccc(-c2ccccc2C[C@@H]2O[C@H](CO)[C@H](O)[C@H](O)[C@H]2[N+](=O)[O-])c1 [Compound 34]
- IC50 (FmlH; FmlH ELISA, average of four replicates): all activity against FmlH was eliminated

- urine concentration relative to FmlH IC50 (Mouse pharmacokinetics): over 300 fold
- urine concentration achieved (Mouse pharmacokinetics; high urine concentration quoted in the conclusion): 61 µM
- AUC relative to 67 [1]: ~4 fold
SMILES: CC(=O)N[C@H]1[C@H](Oc2cccc(C(F)(F)F)c2-c2ccc(F)cc2)O[C@H](CO)[C@H](O)[C@@H]1O [Compound 69]

SMILES: CS(=O)(=O)Nc1cccc(-c2ccccc2C[C@@H]2O[C@H](CO)[C@H](O)[C@H](O)[C@H]2F)c1 [Compound 28]
- improvement of potency on replacing 2-position OH with F (FmlH; FmlH ELISA, relative to 27): 2 fold

SMILES: CC(=O)N[C@H]1[C@H](Oc2cccc(C(F)(F)F)c2-c2cccc(CS(C)(=O)=O)c2)O[C@H](CO)[C@H](O)[C@@H]1O [Compound 9]
- loss of activity relative to parent compound I (FmlH): ~ 10 fold

SMILES: CC(=O)N[C@H]1[C@H](Oc2cccc(C(F)(F)F)c2-c2cccc(NS(C)(=O)=O)c2)O[C@H](CO)[C@H](O)[C@@H]1O [I]
- metabolic stability ([2]; SGF, SIF, mouse liver microsomes, blood plasma): good metabolic stability
- stability in plasma and simulated gut and intestinal fluids [2]: good stability
- oral bioavailability (F) [3]: < 1%

SMILES: CC(=O)N[C@H]1[C@H](Oc2cccc(C(F)(F)F)c2-c2cccc(C(=O)NS(C)(=O)=O)c2)O[C@H](CO)[C@H](O)[C@@H]1O [Compound 11]
- loss of activity relative to parent compound I (FmlH): ~ 10 fold
